Laboratory results: PMC6515286 (Molecules, 2019)
Where a name gives a salt, the structure may show the parent alone.

Assays:
[1] = target: 5-HT2A receptor (Homo sapiens, UniProt P28223); assay: in vitro binding to 5-HT2A receptor (screening protocol); settings: read-out: Ki ± SD 5-HT2A
Method: (§1) The ligands obtained in the synthesis (10a–r) were tested in vitro for binding to D2, 5-HT1A, 5-HT2A, 5-HT6, and 5-HT7 receptors on the basis of the screening protocol described previously (Table 6).

[2] = target: 5-HT6 receptor (Homo sapiens, UniProt P50406); assay: in vitro binding to 5-HT6 receptor (screening protocol); settings: read-out: Ki ± SD 5-HT6
Chain of 5-HT6 receptor (P50406 whole entry): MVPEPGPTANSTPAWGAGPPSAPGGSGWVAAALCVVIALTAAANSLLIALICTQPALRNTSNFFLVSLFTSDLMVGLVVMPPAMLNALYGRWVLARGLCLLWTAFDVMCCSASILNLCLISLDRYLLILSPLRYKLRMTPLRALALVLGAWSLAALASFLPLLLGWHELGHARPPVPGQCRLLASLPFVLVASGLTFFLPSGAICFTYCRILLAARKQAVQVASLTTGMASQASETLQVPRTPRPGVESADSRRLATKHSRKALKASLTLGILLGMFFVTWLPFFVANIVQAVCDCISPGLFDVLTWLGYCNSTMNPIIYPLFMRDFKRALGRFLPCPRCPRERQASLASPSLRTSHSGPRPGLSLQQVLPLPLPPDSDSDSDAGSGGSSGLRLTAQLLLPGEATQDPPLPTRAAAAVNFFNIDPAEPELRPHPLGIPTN
Method: as §1

[3] = target: D2 receptor (Homo sapiens, UniProt P14416); assay: in vitro binding to D2 receptor (screening protocol); settings: read-out: Ki ± SD D2
Chain of D2 receptor (P14416 whole entry): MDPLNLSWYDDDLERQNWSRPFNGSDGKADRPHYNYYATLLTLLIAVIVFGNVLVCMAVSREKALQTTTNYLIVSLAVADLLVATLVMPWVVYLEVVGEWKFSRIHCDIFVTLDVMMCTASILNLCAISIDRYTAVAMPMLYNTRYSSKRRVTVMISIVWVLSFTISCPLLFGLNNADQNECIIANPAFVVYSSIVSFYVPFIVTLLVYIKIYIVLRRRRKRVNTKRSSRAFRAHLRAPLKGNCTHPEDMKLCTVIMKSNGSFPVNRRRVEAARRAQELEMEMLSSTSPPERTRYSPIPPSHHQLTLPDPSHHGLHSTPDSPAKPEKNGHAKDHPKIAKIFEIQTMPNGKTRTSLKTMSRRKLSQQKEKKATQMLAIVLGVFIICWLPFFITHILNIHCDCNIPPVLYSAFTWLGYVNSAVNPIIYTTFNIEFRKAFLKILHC
Method: as §1

[4] = target: 5-HT7 receptor (Homo sapiens, UniProt P34969); assay: in vitro binding to 5-HT7 receptor (screening protocol); settings: read-out: Ki ± SD 5-HT7
Chain of 5-HT7 receptor (P34969 whole entry): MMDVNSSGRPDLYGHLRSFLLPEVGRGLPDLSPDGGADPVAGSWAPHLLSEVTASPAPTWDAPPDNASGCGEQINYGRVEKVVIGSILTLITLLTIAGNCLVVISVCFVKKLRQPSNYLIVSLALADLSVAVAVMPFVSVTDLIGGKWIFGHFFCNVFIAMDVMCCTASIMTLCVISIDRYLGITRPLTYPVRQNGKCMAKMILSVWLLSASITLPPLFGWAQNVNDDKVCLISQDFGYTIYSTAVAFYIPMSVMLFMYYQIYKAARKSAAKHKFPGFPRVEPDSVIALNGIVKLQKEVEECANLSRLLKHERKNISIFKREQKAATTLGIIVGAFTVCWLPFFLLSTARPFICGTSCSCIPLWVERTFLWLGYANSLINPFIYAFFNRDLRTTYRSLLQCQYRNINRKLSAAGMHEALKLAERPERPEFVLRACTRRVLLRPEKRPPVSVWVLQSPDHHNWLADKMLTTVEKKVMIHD
Method: as §1

[5] = target: T1, 5-HT1A receptor (Homo sapiens, UniProt P08908); assay: in vitro binding to 5-HT1A receptor (screening protocol); settings: read-out: Ki ± SD 5-HT1A
T1 sequence (P08908 1-422): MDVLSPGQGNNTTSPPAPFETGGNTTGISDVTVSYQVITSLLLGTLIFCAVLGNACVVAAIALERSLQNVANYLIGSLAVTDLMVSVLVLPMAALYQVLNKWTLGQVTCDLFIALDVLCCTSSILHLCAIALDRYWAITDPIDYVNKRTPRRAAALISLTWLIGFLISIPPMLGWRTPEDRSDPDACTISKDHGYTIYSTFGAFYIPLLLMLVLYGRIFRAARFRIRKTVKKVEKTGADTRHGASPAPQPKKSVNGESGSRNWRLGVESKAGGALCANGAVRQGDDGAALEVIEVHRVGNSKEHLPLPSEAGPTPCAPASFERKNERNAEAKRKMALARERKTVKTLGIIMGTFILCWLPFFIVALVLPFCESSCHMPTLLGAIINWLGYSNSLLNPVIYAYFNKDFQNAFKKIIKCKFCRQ
Method: as §1

Chain of 5-HT2A receptor (P28223 whole entry): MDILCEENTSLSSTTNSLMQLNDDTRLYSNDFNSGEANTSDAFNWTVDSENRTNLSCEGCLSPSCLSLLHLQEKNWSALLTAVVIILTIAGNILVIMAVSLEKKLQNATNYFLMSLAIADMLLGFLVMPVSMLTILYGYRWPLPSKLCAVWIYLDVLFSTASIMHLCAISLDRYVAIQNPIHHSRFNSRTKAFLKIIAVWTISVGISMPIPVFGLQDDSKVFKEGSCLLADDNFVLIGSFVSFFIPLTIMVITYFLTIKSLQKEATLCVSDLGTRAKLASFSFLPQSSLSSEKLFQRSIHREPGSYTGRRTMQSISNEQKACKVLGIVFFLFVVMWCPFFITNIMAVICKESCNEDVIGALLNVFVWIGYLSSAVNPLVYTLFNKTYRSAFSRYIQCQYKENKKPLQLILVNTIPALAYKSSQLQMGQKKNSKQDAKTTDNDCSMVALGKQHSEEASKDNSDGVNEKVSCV

Structure (SMILES) | Ki [1] | Ki [2] | Ki [3] | Ki [4] | Ki [5]
O=c1n(CCCN2CCN(c3cccc(Cl)c3Cl)CC2)nc2ccccn12 [10a, 2-[3-[4-(2,3-dichlorophenyl)piperazin-1-yl]propyl]-[1,2,4]triazolo[4,3-a]pyridin-3-one hydrochloride] | 181 ± 22 nM | 1430 ± 294 nM | 116 ± 19 nM | 157 ± 13 nM | 
O=c1n(CCCN2CCN(c3ccccc3F)CC2)nc2ccccn12 [10b, 2-[3-[4-(2-fluorophenyl)piperazin-1-yl]propyl]-[1,2,4]triazolo[4,3-a]pyridin-3-one hydrochloride] | 969 ± 114 nM | 36400 nM | 1650 ± 203 nM | 7420 ± 625 nM | 1550 ± 314 nM
O=c1n(CCCN2CCN(c3ncccn3)CC2)nc2ccccn12 [10c, 2-[3-(4-pyrimidin-2-ylpiperazin-1-yl)propyl]-[1,2,4]triazolo[4,3-a]pyridin-3-one hydrochloride] | 178 ± 25 nM | 3250 ± 401 nM | 122 ± 8 nM | 174 ± 34 nM | 459 ± 36 nM
CCOc1ccccc1N1CCN(CCCn2nc3ccccn3c2=O)CC1 [10d, 2-[3-[4-(2-ethoxyphenyl)piperazin-1-yl]propyl]-[1,2,4]triazolo[4,3-a]pyridin-3-one hydrochloride] | 6710 ± 952 nM | 9460 ± 1140 nM | 152 ± 17 nM | 539 ± 68 nM | 593 ± 81 nM
O=c1n(CCCCCCN2CCN(c3cccc(Cl)c3)CC2)nc2ccccn12 [10e, 2-[6-[4-(3-chlorophenyl)piperazin-1-yl]hexyl]-[1,2,4]triazolo[4,3-a]pyridin-3-one hydrochloride] | 342 ± 48 nM | 1940 ± 281 nM | 137 ± 11 nM | 278 ± 19 nM | 16 ± 2 nM
O=c1n(CCCCCCN2CCN(c3ccccc3Cl)CC2)nc2ccccn12 [10f, 2-[6-[4-(2-chlorophenyl)piperazin-1-yl]hexyl]-[1,2,4]triazolo[4,3-a]pyridin-3-one hydrochloride] | 2600 ± 318 nM | 3570 ± 563 nM | 522 ± 71 nM | 2600 ± 359 nM | 49 ± 4 nM
O=c1n(CCCCCCN2CCN(c3ccc(Cl)cc3)CC2)nc2ccccn12 [10g, 2-[6-[4-(4-chlorophenyl)piperazin-1-yl]hexyl]-[1,2,4]triazolo[4,3-a]pyridin-3-one hydrochloride] | 234 ± 46 nM | 2060 ± 173 nM | 362 ± 17 nM | 435 ± 61 nM | 27 ± 3 nM
O=c1n(CCCCCCN2CCN(c3ccc(Cl)c(Cl)c3)CC2)nc2ccccn12 [10h, 2-[6-[4-(3,4-dichlorophenyl)piperazin-1-yl]hexyl]-[1,2,4]triazolo[4,3-a]pyridin-3-one hydrochloride] | 77 ± 14 nM | 576 ± 82 nM | 310 ± 42 nM | 196 ± 29 nM | 19 ± 3 nM
O=c1n(CCCCCCN2CCN(c3ccccc3F)CC2)nc2ccccn12 [10i, 2-[6-[4-(2-fluorophenyl)piperazin-1-yl]hexyl]-[1,2,4]triazolo[4,3-a]pyridin-3-one hydrochloride] | 417 ± 52 nM | 4740 ± 687 nM | 195 ± 11 nM | 993 ± 214 nM | 7 ± 2 nM
COc1ccccc1N1CCN(CCCCCCn2nc3ccccn3c2=O)CC1 [10j, 2-[6-[4-(2-methoxyphenyl)piperazin-1-yl]hexyl]-[1,2,4]triazolo[4,3-a]pyridin-3-one hydrochloride] | 841 ± 105 nM | 11500 nM | 57 ± 6 nM | 219 ± 36 nM | 4 ± 1 nM
COc1cccc(N2CCN(CCCCCCn3nc4ccccn4c3=O)CC2)c1 [10k, 2-[6-[4-(3-methoxyphenyl)piperazin-1-yl]hexyl]-[1,2,4]triazolo[4,3-a]pyridin-3-one hydrochloride] | 343 ± 21 nM | 3500 ± 537 nM | 21 ± 3 nM | 1020 ± 184 nM | 9 ± 2 nM
COc1ccc(N2CCN(CCCCCCn3nc4ccccn4c3=O)CC2)cc1 [10l, 2-[6-[4-(4-methoxyphenyl)piperazin-1-yl]hexyl]-[1,2,4]triazolo[4,3-a]pyridin-3-one hydrochloride] | 3900 ± 432 nM | 5620 ± 743 nM | 350 ± 54 nM | 8300 ± 1350 nM | 826 ± 91 nM
CCOc1ccccc1N1CCN(CCCCCCn2nc3ccccn3c2=O)CC1 [10m, 2-[6-[4-(2-ethoxyphenyl)piperazin-1-yl]hexyl]-[1,2,4]triazolo[4,3-a]pyridin-3-one hydrochloride] | 1540 ± 225 nM | 4820 ± 581 nM | 1640 ± 219 nM | 251 ± 52 nM | 9 ± 2 nM
O=c1n(CCCCCCN2CCN(c3ccccn3)CC2)nc2ccccn12 [10n, 2-[6-[4-(2-pyridyl)piperazin-1-yl]hexyl]-[1,2,4]triazolo[4,3-a]pyridin-3-one hydrochloride] | 1720 ± 193 nM | 4640 ± 341 nM | 10 ± 2 nM | 1050 ± 91 nM | 18 ± 3 nM
O=c1n(CCCCCCN2CCN(c3ncccn3)CC2)nc2ccccn12 [10o, 2-[6-(4-pyrimidin-2-ylpiperazin-1-yl)hexyl]-[1,2,4]triazolo[4,3-a]pyridin-3-one hydrochloride] | 10600 nM | 7220 ± 827 nM | 202 ± 31 nM | 5570 ± 438 nM | 104 ± 12 nM
O=c1n(CCCCCCN2CCN(c3ccccc3)CC2)nc2ccccn12 [10p, 2-[6-(4-phenylpiperazin-1-yl)hexyl]-[1,2,4]triazolo[4,3-a]pyridin-3-one hydrochloride] | 391 ± 27 nM | 3330 ± 197 nM | 1530 ± 116 nM | 404 ± 67 nM | 28 ± 4 nM
O=c1n(CCCCCCN2CCN(c3ccccc3-c3ccccc3)CC2)nc2ccccn12 [10r, 2-[6-[4-(2-phenylphenyl)piperazin-1-yl]hexyl]-[1,2,4]triazolo[4,3-a]pyridin-3-one hydrochloride] | 328 ± 49 nM | 1190 ± 165 nM | 191 ± 14 nM | 19 ± 3 nM | 20 ± 3 nM
